US5202355A, “Method of inhibiting aldose reductase in diabetic hosts using phenol derivatives” (Takasago Institute for Interdisciplinary Science Inc., priority 1991, dated 1993)
Like-named read-outs stand apart in the source and are kept apart here.

Legend:
[1] = test system: peripheral nerve deterioration; settings: diabetic patients suffering from peripheral nerve deterioration; cited from earlier work
[2] = test system: motor nerve conduction velocity (MNCV); settings: short and long-term streptozotocin induced diabetes in rats; cited from earlier work
[3] = target: calf lens aldose reductase; settings: cited from earlier work
[4] = target: T1, aldose reductase (Bos taurus, UniProt P16116); test: Aldose reductase inhibition (percent inhibition of enzyme activity); type: biochemical, calf
T1 construct: The enzyme was isolated from the homogenized preparation by successive chromatography; from tissue; host or cells: calf eye lens
Method: The following phenols were tested for their ability to inhibit aldose reductase enzyme activity.
The assay was conducted essentially according to the procedure of S. Hayman, et al., as described in the Journal of Biological Chemistry, 240, 877 (1965).
The preparation of aldose reductase was conducted according to the procedure of K. Inagaki et al., ARchives of Biochemistry and Biophysics, 216, 337 (1982). Briefly, lenses were removed from calf eyes and homogenized. The enzyme was isolated from the homogenized preparation by successive chromatography on a DEAE-sephacel column (Pharmacia LKB Biotechnology, Piscataway, N.J.), an affinity column (Matrex gel red A; Amicon Co., Danvers, Mass.), and a Sephadex G-75 column (Pharmacia LKB Biotechnology, Piscataway, N.J.).
A reaction mixture of 0.1M sodium phosphate buffer (pH 6.2), 0.4M ammonium sulfate, 10 mm glyceraldehyde, 0.16 mm NADPH, and 10 ml propylene glycol solution containing the purified enzyme was prepared. The test compound was incubated with the enzyme in the reaction mixture.
Aldose reductase activity was assayed spectrophotometrically by determining the decrease in the NADPH concentration at 340 nm in a Beckman DU-64 spectrophotometer (Beckman, Palo Alto, Calif.).
The percent inhibition of each compound was calculated by comparing the reaction rate of the solution containing substrate and the compound at a given concentration with that of the control solution containing only substrate.

[5] = test system: galactosemic cataract formation; settings: experimental rats; cited from earlier work
[6] = 10^-6 M (× 1.9), read-out: Percent Inhibition (%)
[7] = 10^-6 M (× 3.8), read-out: Percent Inhibition (%)
[8] = 10^-6 M (× 7.5), read-out: Percent Inhibition (%)

Row | Structure (SMILES) | inhibition [4, 6] [%] | inhibition [4, 7] [%] | inhibition [4, 8] [%] | also measured
1 | O=C1NC(=O)[C@@]2(CCOc3ccc(F)cc32)N1 [sorbinil, d-6-fluoro-spiro [chroman-4,4'-imidazolidine]-2',5'-dione] |  |  |  | improvement in diabetic patients [1]: no beneficial effect was observed; motor nerve conduction velocity (MNCV) [2]: improve motor nerve conduction velocity (MNCV); IC50 ([3]; calf lens aldose reductase, read-out: IC50 concentration): ~500 nM; aldose reductase inhibitor potency (in words) [3]: one of the most potent inhibitors heretofore investigated
2 | O=C(O)CN1C(=O)c2cccc3cccc(c23)C1=O [Alrestatin, 1,3-dioxo-1H-benz (de) isoquinoline-2(3H)-acetic acid] |  |  |  | improvement in diabetic patients [1]: no improvement was observed; galactosemic cataract formation [5]: successfully prevent galactosemic cataract formation; sugar polyol accumulations [5]: blocking the sugar polyol accumulations; motor nerve conduction velocity (MNCV) [2]: improve motor nerve conduction velocity (MNCV)
3 | C=CC/C=C\C/C=C\CCCCCCCc1cc(O)cc(O)c1 [Compound 16, 5-[8(z),11(z),14-pentadecatrienyl]resorcinol] |  |  |  | inhibition ([4]; read-out: Percent Inhibition (%), 10^-6 M (× 1.9)): 12%; inhibition ([4]; read-out: Percent Inhibition (%), 10^-6 M (× 3.8)): 16%; inhibition ([4]; read-out: Percent Inhibition (%), 10^-6 M (× 7.5)): 85%
4 | CCCCCCCCCCCCCCCc1cccc(O)c1C(=O)O [Compound 1, 6-Pentadecylsalicylic Acid] |  | 27 | 40 | 

Further lines, with some results ahead:

Row | inhibition [4, 6] [%] | inhibition [4, 7] [%] | inhibition [4, 8] [%] | Structure (SMILES) | also measured
5 | 47 | 60 | 77 | C=CC/C=C\C/C=C\CCCCCCCc1cccc(O)c1C(=O)O [Compound 4, 6-[8(z),11(z),14-pentadecatrienyl]salicylic acid] | 
6 |  | 28 | 53 | C=CC/C=C\C/C=C\CCCCCCCc1cc(O)c(C)c(O)c1 [Compound 12, 2-methyl-5-[8(z),11(z),14-pentadecatrienyl]resorcinol] | 
7 |  | 22 | 43 | CCC/C=C\C/C=C\CCCCCCCc1cc(O)c(C)c(O)c1 [Compound 11, 2-methyl-5-[8(z),11(z)-pentadecadienyl]resorcinol] | 
8 | 1 | 18 | 91 | CCC/C=C\C/C=C\CCCCCCCc1cccc(O)c1C(=O)O [Compound 3, 6-[8(z),11(z)-pentadecadienyl]salicylic acid] | 
9 | 9 | 42 | 91 | CCCCCC/C=C\CCCCCCCc1cccc(O)c1C(=O)O [Compound 2, 6-[8(z)-pentadecenyl]salicylic acid] | 
